Assays:
[1] = target: SARS-CoV-2 nsp14/nsp10 complex (Severe acute respiratory syndrome coronavirus 2, UniProt P0DTD1); assay: ITC binding to full-length nsp14/nsp10 complex
[2] = target: TEL-MTase fusion (nsp14 N7-MTase-TELSAM) (Severe acute respiratory syndrome coronavirus 2, UniProt P0DTD1); assay: ITC binding to TEL-MTase fusion; set-up: species or system SARS-CoV-2
[3] = target: SARS-CoV-2 MTase domain (residues 289–527) (Severe acute respiratory syndrome coronavirus 2, UniProt P0DTD1); assay: ITC binding to isolated MTase domain

Compound: Nc1ncnc2c1ncn2[C@@H]1O[C@H](CSCC[C@H](N)C(=O)O)[C@@H](O)[C@H]1O [SAH, S-adenosylhomocysteine]
- Kd [1]: 0.3 µM
- Kd [2]: 5 µM

Compound: C[S+](CC[C@H](N)C(=O)[O-])C[C@H]1O[C@@H](n2cnc3c(N)ncnc32)[C@H](O)[C@@H]1O (stereo partly shown) [SAM, S-adenosylmethionine]
- Kd [1]: 5.7 µM
- Kd [3]: 22 to 25 µM

— article PMC10388636 (Nature structural & molecular biology, 2022)
